The results in this text go back to article PMC4342491, “Cross-talk between Two Nucleotide-signaling Pathways in Staphylococcus aureus” (The Journal of Biological Chemistry, 2015).

Assay [1] deals with T1, GdpP (rGdpP) (Staphylococcus aureus, UniProt Q2G2T6).
T1 construct: gene SAOUHSC_00015; residues 84-655, N-terminal transmembrane helices removed
T1 sequence (Q2G2T6 84-655): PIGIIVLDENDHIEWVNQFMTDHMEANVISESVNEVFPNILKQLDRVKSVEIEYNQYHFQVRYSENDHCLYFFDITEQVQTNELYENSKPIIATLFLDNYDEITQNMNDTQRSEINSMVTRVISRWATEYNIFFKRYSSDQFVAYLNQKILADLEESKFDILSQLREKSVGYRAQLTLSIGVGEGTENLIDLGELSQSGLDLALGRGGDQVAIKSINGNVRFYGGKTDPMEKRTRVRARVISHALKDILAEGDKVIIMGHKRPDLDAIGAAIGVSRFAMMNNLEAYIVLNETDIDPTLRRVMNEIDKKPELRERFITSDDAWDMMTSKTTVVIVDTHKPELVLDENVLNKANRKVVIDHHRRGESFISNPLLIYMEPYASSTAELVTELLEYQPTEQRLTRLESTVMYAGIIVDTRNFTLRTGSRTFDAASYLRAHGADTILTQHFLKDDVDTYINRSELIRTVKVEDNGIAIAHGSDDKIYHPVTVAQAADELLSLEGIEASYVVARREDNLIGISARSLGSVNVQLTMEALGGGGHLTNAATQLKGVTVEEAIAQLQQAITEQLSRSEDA
Put plainly: TLC of radiolabelled c-di-AMP hydrolysis to pApA. The format is biochemical. Particulars: labelled compound; 20 μM c-di-AMP, 1 μM enzyme, 50 mM Tris pH 8.5, 0.1 mM MnCl2, 20 mM KCl, room temperature, no ppGpp.

Assay [2] has as its target T1, GdpP (rGdpP). Put plainly: TLC of […]c-di-AMP hydrolysis to pApA, dose-response fit. Type of assay: biochemical.

Turning to `Nc1ncnc2c1ncn2[C@@H]1O[C@@H]2COP(=O)(O)O[C@H]3[C@@H](O)[C@H](n4cnc5c(N)ncnc54)O[C@@H]3COP(=O)(O)O[C@H]2[C@H]1O` [c-di-AMP], the “% pApA formation” value in assay [1] was “rGdpP was able to efficiently hydrolyze c-di-AMP in the absence of ppGpp”.

What is called Ki is a dissociation constant, usually derived from enzyme kinetics or from competition with a known ligand. Higher therefore signals weaker binding. On to `Nc1nc2c(ncn2[C@@H]2O[C@H](COP(=O)(O)OP(=O)(O)O)[C@@H](OP(=O)(O)OP(=O)(O)O)[C@H]2O)c(=O)[nH]1` [ppGpp], for which, in assay [2], the Ki was found to be 130 ± 42.8 µM.
